From patent US6835382B2, “Ii peptide therapeutics to enhance antigen presentation” (University of Massachusetts, priority 1996, dated 2004)
Non-standard residues stand in square brackets, D forms with d. Cit = NC(=O)NCCC[C@H](N)C(=O)O; Orn = NCCC[C@H](N)C(=O)O

Legend:
[1] = target: T1, murine E^d MHC class II allele (Mus musculus, UniProt P01904+P01915); test: simultaneous assay, E^d allele (A20 APC, G28.C9 T hybridoma, HEL106-116; HT-2 [3H]TdR readout); assay type: cell-based; set-up: The A20 and CH27 B cell lymphoma lines express H-2^d and H-2^k alleles, respectively; endogenous in cells; host or cells: A20 B cell lymphoma (mitomycin C-treated or paraformaldehyde-fixed)
T1 sequence (P01904 26-255): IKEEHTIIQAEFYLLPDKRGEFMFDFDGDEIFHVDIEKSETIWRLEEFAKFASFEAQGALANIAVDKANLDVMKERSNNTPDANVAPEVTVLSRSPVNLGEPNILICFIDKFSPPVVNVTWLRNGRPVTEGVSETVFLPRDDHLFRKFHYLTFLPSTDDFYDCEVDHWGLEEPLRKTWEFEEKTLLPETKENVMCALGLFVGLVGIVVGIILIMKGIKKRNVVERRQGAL
T1 sequence (P01915 27-264 limits assumed): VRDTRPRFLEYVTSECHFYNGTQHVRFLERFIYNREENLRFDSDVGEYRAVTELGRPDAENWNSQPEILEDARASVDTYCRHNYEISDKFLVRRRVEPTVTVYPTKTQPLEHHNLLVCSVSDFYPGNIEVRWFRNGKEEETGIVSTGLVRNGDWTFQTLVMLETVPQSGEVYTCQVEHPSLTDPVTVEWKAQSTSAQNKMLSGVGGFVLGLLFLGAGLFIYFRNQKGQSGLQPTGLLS
In short: (§1)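 Read-out is [3H]TdR incorporation into HT-2 indicator cells exposed to supernatant from a 24 h primary culture. That culture combined mitomycin C-treated APC (5×10^6 cells/mL, 0.025 mg/mL mitomycin C, 20 min, 37° C), peptide, effector compound and T hybridoma, all added at once.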

[2] = test system: murine E^k MHC class II allele; test: simultaneous assay, E^k allele (CH27 APC, TPc9.1 T hybridoma, THMCC82-103 or PGCC81-104); assay type: cell-based
In short: as §1

[3] = Table 9, AE peptide 64 μM, supernatant 1:4
[4] = Table 16, AE peptide 4 μM, supernatant 1:8
[5] = Table 9, AE peptide 64 μM, supernatant 1:4, normalized by a factor of 5
[6] = Table 11, AE peptide 64 μM, supernatant 1:8
[7] = Table 14, AE peptide 64 μM, supernatant 1:4
[8] = Table 11, AE peptide 64 μM, supernatant 1:4
[9] = Table 1, AE peptide 16 μM (second value), 0.4 μM HEL106-116, supernatant 1:4
[10] = Table 1, AE peptide 64 μM (first value), 0.4 μM HEL106-116, supernatant 1:4
[11] = Table 5, AE peptide 64 μM, supernatant 1:4
[12] = Table 7, AE peptide 64 μM, supernatant 1:4
[13] = Table 13, AE peptide 1 μM (fourth value), supernatant 1:4
[14] = Table 13, AE peptide 4 μM (third value), supernatant 1:4
[15] = Table 13, AE peptide 16 μM (second value), supernatant 1:4
[16] = Table 13, AE peptide 64 μM (first value), supernatant 1:4
[17] = Table 15, AE peptide 16 μM, supernatant 1:4
[18] = Table 18, AE peptide 64 μM, supernatant 1:4
[19] = Table 1, AE peptide 16 μM (second value), 0.075 μM THMCC82-103, supernatant 1:2
[20] = Table 1, AE peptide 64 μM (first value), 0.075 μM THMCC82-103, supernatant 1:2
[21] = Table 5, AE peptide 64 μM, supernatant 1:4, normalized to E^d by a factor of 10
[22] = Table 7, AE peptide 64 μM, supernatant 1:4, normalized by a factor of 5
[23] = Table 2, AE peptide 64 μM, 0.05 μM HEL106-116, supernatant 1:2
[24] = Table 2, AE peptide 64 μM, 0.05 μM PGCC81-104, supernatant 1:2

Substance: Ac-LRMKLP N-NH2 (Ac-LRMKLPN-NH2) [AE246]
- Times Baseline Response, E^d [1, 3]: 7.3
- Times Baseline Response, E^d [1, 4]: 21.8
- Times Baseline Response, E^k [2, 5]: 16.4
- Times Baseline Response, E^k [2, 4]: 1.0

Substance: Ac-LRMKLP k-NH2 [AE166]
- Times Baseline Response, E^d [1, 6]: 26.4
- Times Baseline Response, E^d [1, 7]: 14.7
- Times Baseline Response, E^k [2, 8]: 3.4
- Times Baseline Response, E^k [2, 7]: 40.4

Substance: Ac-LRMKLPK-NH2 [AE114]
- Times Baseline Response, E^d [1, 9]: 26.0
- Times Baseline Response, E^d [1, 10]: 39.8
- Times Baseline Response, Ed ([1]; Table 3, AE peptide 64 μM, supernatant 1:4): 10.0
- Times Baseline Response, E^d [1, 11]: 10.0
- Times Baseline Response, E^d ([1]; Table 6, AE peptide 64 μM, supernatant 1:4): 10.6
- Times Baseline Response, E^d [1, 12]: 10.6
- Times Baseline Response, E^d [1, 3]: 7.7
- Times Baseline Response, E^d [1, 6]: 24.1
- Times Baseline Response, E^d ([1]; Table 12, AE peptide 1 μM (fourth value), supernatant 1:2): 5
- Times Baseline Response, E^d ([1]; Table 12, AE peptide 4 μM (third value), supernatant 1:2): 62
- Times Baseline Response, E^d ([1]; Table 12, AE peptide 16 μM (second value), supernatant 1:2): 115
- Times Baseline Response, E^d ([1]; Table 12, AE peptide 64 μM (first value), supernatant 1:2): 103
- Times Baseline Response, E^d [1, 13]: 2
- Times Baseline Response, E^d [1, 14]: 18
- Times Baseline Response, E^d [1, 15]: 65
- Times Baseline Response, E^d [1, 16]: 48
- Times Baseline Response, E^d [1, 7]: 12.4
- Times Baseline Response, E^d [1, 17]: 228
- Times Baseline Response, E^d [1, 4]: 15.7
- Times Baseline Response, E^d ([1]; Table 17, AE peptide 4 μM, supernatant 1:4): 47
- Times Baseline Response, E^d [1, 18]: 12.4
- Times Baseline Response, E^k [2, 19]: 3.9
- Times Baseline Response, E^k [2, 20]: 15.9
- Times Baseline Response, Ek ([2]; Table 3, AE peptide 64 μM, supernatant 1:4, values reduced relative to E^d by a factor of 10): 26.9
- Times Baseline Response, E^k [2, 21]: 26.9
- Times Baseline Response, E^k ([2]; Table 6, AE peptide 64 μM, supernatant 1:4, reduced by a factor of 5): 10.7
- Times Baseline Response, E^k [2, 22]: 10.7
- Times Baseline Response, E^k [2, 5]: 13.2
- Times Baseline Response, E^k [2, 8]: 5.2
- Times Baseline Response, E^k ([2]; Table 12, AE peptide 1 μM (fourth value), supernatant 1:4): 2.1
- Times Baseline Response, E^k ([2]; Table 12, AE peptide 4 μM (third value), supernatant 1:4): 4.9
- Times Baseline Response, E^k ([2]; Table 12, AE peptide 16 μM (second value), supernatant 1:4): 19.3
- Times Baseline Response, E^k ([2]; Table 12, AE peptide 64 μM (first value), supernatant 1:4): 51.5
- Times Baseline Response, E^k [2, 13]: 2.1
- Times Baseline Response, E^k [2, 14]: 4.9
- Times Baseline Response, E^k [2, 15]: 19.3
- Times Baseline Response, E^k [2, 16]: 51.5
- Times Baseline Response, E^k [2, 7]: 40.3
- Times Baseline Response, E^k [2, 17]: 18.2
- Times Baseline Response, E^k [2, 4]: 1.2
- Times Baseline Response, E^k ([2]; Table 17, AE peptide 64 μM, supernatant 1:4): 2.8
- Times Baseline Response, E^k [2, 18]: 40.3

Substance: Ac-LRMKLPKPPK-NH2 [AE168]
- Times Baseline Response, E^d [1, 10]: 16.7, n.d.
- Times Baseline Response, E^k [2, 20]: 4.7, n.d.

Substance: Ac-LRMKLPKPPP-NH2 [AE167]
- Times Baseline Response, E^d [1, 10]: 20.1, n.d.
- Times Baseline Response, E^k [2, 20]: 3.4, n.d.

Substance: Ac-LRMKLPKSAK-NH2 [AE110]
- Times Baseline Response, E^d [1, 9]: 27.8
- Times Baseline Response, E^d [1, 10]: 47.1
- Times Baseline Response, E^d [1, 23]: 23.8
- Times Baseline Response, E^k [2, 19]: 2.1
- Times Baseline Response, E^k [2, 20]: 7.6
- Times Baseline Response, E^k [2, 24]: 19.1

Substance: Ac-LRMKLP[Cit]-NH2 [AE241]
- Times Baseline Response, E^d [1, 3]: 3.4
- Times Baseline Response, E^d [1, 4]: 7.1
- Times Baseline Response, E^k [2, 5]: 12.2
- Times Baseline Response, E^k [2, 4]: 1.0

Substance: Ac-LRMK[Orn]PK-NH2 [AE225]
- Times Baseline Response, E^d [1, 12]: 10.4
- Times Baseline Response, E^k [2, 22]: 13.9

Substance: Ac-LRNKNPF-NH2 [AE348]
- Times Baseline Response, E^d [1, 17]: 13.1
- Times Baseline Response, E^k [2, 17]: 6.3

Substance: Ac-LRNKNPK-NH2 [AE349]
- Times Baseline Response, E^d [1, 17]: 25.3
- Times Baseline Response, E^k [2, 17]: 6.1

Substance: Ac-LR[Orn]KLPK-NH2 [AE195]
- Times Baseline Response, E^d [1, 11]: 12.1
- Times Baseline Response, E^d [1, 17]: 34.3
- Times Baseline Response, E^k [2, 21]: 12.1
- Times Baseline Response, E^k [2, 17]: 19.8

Substance: Ac-L[Cit]MKNPK-NH2 [AE342]
- Times Baseline Response, E^d [1, 17]: 2.3
- Times Baseline Response, E^k [2, 17]: 5.4

Substance: Ac-L[Cit]NKLPK-NH2 [AE343]
- Times Baseline Response, E^d [1, 17]: 1.2
- Times Baseline Response, E^k [2, 17]: 2.9

Substance: Ac-NLQLDSLRMKLPKSAK-NH2 [AE150]
- Times Baseline Response, E^d [1, 23]: 3.2
- Times Baseline Response, E^k [2, 24]: 0.8

Substance: Ac-QLDSLRMKLPKSAK-NH2 [AE152]
- Times Baseline Response, E^d [1, 23]: 2.3
- Times Baseline Response, E^k [2, 24]: 0.4
- activity in simultaneous assay on E^k, in words ([2]; Tables 2 and 18): inhibition

Substance: Ac-SLRMKLPKSAK-NH2 [AE155]
- Times Baseline Response, E^d [1, 23]: 23.4
- Times Baseline Response, E^k [2, 24]: 8.4
